≈ marks a conversion by molar mass, not a printed value. Like-named read-outs stand apart in the source and are kept apart here.
Key:
Type in all cases: cell-based
Eimeria tenella = test: Screening of compounds against Eimeria tenella cell cultures in vitro (chick kidney cell monolayers, microscopic evaluation); conditions: chick kidney cells, day 5 post infection
Experimental: (b) Screening of Compounds again Eimeria Tenella cell cultures in vitro
Cells from kidneys of 19 day old chicks are cultured as monolayers in 96-well plates (Falcon 3872) in a medium of Hanks lactalbumine hydrolysate, 5% fetal calf serum, 1% glutamine and 1% non-essential amino acids. After two days at 42°C under 5% CO2, the culture was infected with excised sporozoites of Eimeria tenella at about […] per well. Test compounds were dissolved in DMSO and diluted with culture medium to a maximum end concentration of 10µg ml^-1. The dilution steps were 1:10. On day 5 post infection, the cultures were evaluated under a microscope at 100-fold magnification and the condition of the host cells and the amount of intact schizonts and free merozoites was determined.

[1] = system: Neospora caninum tachyzoites; test: Screening of compounds against Neospora caninum cell cultures in vitro (microscopic evaluation of infected host cell monolayer); parameters: key: 0 = no effect; 1 = weak effect; 2 = full effect; T = cytotoxic; conditions: VERO or ED host cells, evaluation 4 days after treatment
Experimental: (a) Screening of compounds against Neospora Caninum cell cultures in vitro.
Screening was conducted in 96-well plates (Falcon 3872). A monolayer of host cells (VERO or ED) were placed on a cell culture plate. Non-infected monolayers of cells were cultured in two 50 ml tissue culture bottles (50 cm^3 cell culture area). The cell layer was detached with trypsin-EDTA (5 ml. Gibco 45300-019) in a CO2-culture cupboard at 37°C. After 10 minutes, most of the cells were detached. The cells were transferred with a 5 ml pipette into a 50 ml centrifuge tube (Greiner, B769331) containing about 1 ml warmed fetal calf serum. After centrifugation for 5 minutes at 1500 rpm (Varifuge 3.0, Heraeus), the liquid was removed and the cell pellet suspended in RPMI medium (100 ml, 95% RPMI 1640, 2% FCS, 1% L-glutamine, 1% sodium hydrogen carbonate, 1% penicillin/streptomycin). The cell suspension was pipetted into six 96-well plates at 150 µl per well. The coated cell culture plates were placed in an incubation cupboard at 37°C under 5% CO2 for 24 hours. The cells were then infected with Neospora caninum tachyzoites at a concentration of 48,000 tachyzoites per well. This was followed by incubation at 37°C under 5% CO2 for 24 hours.
The test compounds (0.5 - 1.5 mg) were weighed into 1.5 ml eppendorf vessels and dissolved in 1 ml dimethyl sulphoxide, corresponding to a dilution of about 1 x 10^-3 g ml^-1. The medium used for further dilution consisted of 87% RPMI 1640, 10% FCS, 1% L-glutamine, 1% sodium hydrogen carbonate, 1% penicillin/streptomycin. In the first screening, concentrations of 10^-5, 10^-6 and 10^-7 g ml^-1 were used. The diluted preparations were then transferred to the cell culture plates at a volume of 150 µl per well after 24 hour infection with Neospora caninum. For the first row, untreated medium was used; this row contained infected and uninfected cells as controls. The cell plate was incubated at 37°C under 5% CO2 for 5 days. Microscopic evaluation was conducted 4 days after treatment and 5 days after infection at a magnification of 25 x 10 in an inverse microscope according to the following evaluation scheme.

[2] = system: Plasmodium Falciparum W2 Strain (Chloroquine resistant); test: In vitro screening against Plasmodium falciparum, radiolabelled hypoxanthine incorporation, W2 strain; conditions: for IC50 / IC90: Plasmodium falciparum; for IC50: read-out: In vitro activity: IC50; for IC90: read-out: In vitro activity: IC90
Experimental: (§1) (c) In Vitro Screening against Plasmodium Falciparum
Two parasite strains - W2 resistant to chloroquine, and D6 sensitive to chloroquine but resistant to mefloquine were used.
The assay relies on incorporation of radiolabelled hypoxanthine by the parasite and inhibition of incorporation is attributed to activity of known or candidate antimalarial drugs. For each assay, proven antimalarials such as chloroquine, mefloquine, quinine, artemisinin and pyrimethamine were used as controls. The incubation period was 66 hours, and the starting parasitemia was 0.2% with 1% hematocrit. The medium was an RPMI-1640 culture with no folate or p-aminobenzoic acid. […] If a compound was submitted with no prior knowledge of activity, it was dissolved directly in dimethyl sulphoxide (DMSO), and diluted 400 fold with complete culture medium. […] These dilutions were performed automatically by a Biomek 1000 Liquid Handling System in 96-well microtiter plates. The diluted drugs were then transferred to test plates, 200 µl of parasitized erythrocytes were added, and incubated at 37°C in a controlled environment of 5% CO2, 5% O2 and 90% N2. After 42 hours, 25 µl of ^3H-hypoxanthine was added, and the plates incubated for an additional 24 hours. After 66 hours, the plates were frozen at -70°C to lyse the red cells, and then thawed and harvested onto glass fiber filter mats in a 96-well harvester. The filter mats were then counted in a scintillation counter. For each drug, the concentration response profile was determined and 50%, 90% and 10% inhibitory concentrations (IC50, IC90 and IC10) were determined by a non-linear logistic dose response analysis program.
(§2) A prescreen format can be used wherein a 3-dilution assay may be used to determine activity at high medium or low concentrations. The concentrations were selected as 50,000, 500 and 50 ng ml^-1. These were performed in duplicate on a 96-well format plate with 14 test compounds and one known (standard) compound per plate. The system was automated with a Biomek diluter for mixing and diluting the drugs, and adding drugs and parasites to a test plate.
In the prescreen format, if the […] […] If the AF has a ">", then the IC value is greater than the prescreen dilution value; thus "AF>250" means that the IC value is greater than 250 ng ml^-1 and no further screening is carried out. In such cases, values of 0.00 are entered for IC values.

[3] = system: Plasmodium Falciparum D6 Strain (Chloroquine sensitive); test: In vitro screening against Plasmodium falciparum, radiolabelled hypoxanthine incorporation, D6 strain; conditions: for IC50 / IC90: Plasmodium falciparum; for IC50: read-out: In vitro activity: IC50; for IC90: read-out: In vitro activity: IC90
From the text: as §1
Two parasite strains - W2 resistant to chloroquine, and D6 sensitive to chloroquine but resistant to mefloquine were used. In Table IV below, the best compounds should show no cross resistance between the two strains.
The assay relies on incorporation of radiolabelled hypoxanthine by the parasite and inhibition of incorporation is attributed to activity of known or candidate antimalarial drugs. For each assay, proven antimalarials such as chloroquine, mefloquine, quinine, artemisinin and pyrimethamine were used as controls. The incubation period was 66 hours, and the starting parasitemia was 0.2% with 1% hematocrit. The medium was an RPMI-1640 culture with no folate or p-aminobenzoic acid. Albumax rather than 10% normal heat inactivated human plasma was used as, with Albumax, less protein binding is observed, and compounds elicit slightly higher activities in this model. If a compound was submitted with no prior knowledge of activity, it was dissolved directly in dimethyl sulphoxide (DMSO), and diluted 400 fold with complete culture medium. The unknown compound was started at a maximum concentration of 50,000 ng ml^-1 and sequentially diluted 2-fold for 11 times to give a concentration range of 1048 fold. These dilutions were performed automatically by a Biomek 1000 Liquid Handling System in 96-well microtiter plates. The diluted drugs were then transferred to test plates, 200 µl of parasitized erythrocytes were added, and incubated at 37°C in a controlled environment of 5% CO2, 5% O2 and 90% N2. After 42 hours, 25 µl of ^3H-hypoxanthine was added, and the plates incubated for an additional 24 hours. After 66 hours, the plates were frozen at -70°C to lyse the red cells, and then thawed and harvested onto glass fiber filter mats in a 96-well harvester. The filter mats were then counted in a scintillation counter. For each drug, the concentration response profile was determined and 50%, 90% and 10% inhibitory concentrations (IC50, IC90 and IC10) were determined by a non-linear logistic dose response analysis program.
as §2
In the prescreen format, if the ANALYSIS FIELD (AF) has a "<", then the compound was "very active" and the IC values are most likely to be below the last dilution value (in nanograms/ml), which is listed next to AF. In most cases, these compounds were run again at lower starting concentration to determine the true IC value. If the AF has a ">", then the IC value is greater than the prescreen dilution value; thus "AF>250" means that the IC value is greater than 250 ng ml^-1 and no further screening is carried out. In such cases, values of 0.00 are entered for IC values.

[4] = D6 Strain (Chloroquine sensitive), 66 hours incubation

Row | IC50 ([2]; W2, 66 h) | IC90 ([2]; W2, 66 h) | IC50 [3, 4] | IC90 [3, 4] | SMILES | Evaluation (effectiveness) (Eimeria tenella; Dose 10^-5 g/ml) | Evaluation (effectiveness) (Eimeria tenella; Dose 10^-6 g/ml) | Evaluation (effectiveness) (Eimeria tenella; Dose 10^-7 g/ml) | Evaluation (observable effect) ([1]; Dose 10^-5 g/ml) | Evaluation (effectiveness) (Eimeria tenella; Dose 10^-8 g/ml) | Evaluation (observable effect) ([1]; Dose 10^-6 g/ml) | Evaluation (observable effect) ([1]; Dose 10^-7 g/ml) | In vitro activity: (IC10) ([2]; W2 Strain (Chloroquine resistant), 66 hours incubation) | In vitro activity: (IC10) [3, 4] | IC50 ([3]; D6, 66 h) | IC90 ([3]; D6, 66 h) | In vitro activity: (IC10) ([2]; W2, 66 h)
1 | – | – | – | – | C[C@@H]1CC[C@H]2[C@@H](C)C(=O)O[C@@H]3O[C@@]4(C)CC[C@@H]1[C@]32OO4 [Artemisinin, artemisinin] | 2 (2 = active) | 1 (1 = weakly active) | 0 (0 = inactive) | 0 | – | – | – | – | – | – | – | –
2 | 0.07 ng/mL (≈ 0.18 nM) | 0.21 ng/mL (≈ 0.541 nM) | 0.03 ng/mL (≈ 0.0772 nM) | 0.03 ng/mL (≈ 0.0772 nM) | C[C@H]1[C@@H](OC(=O)c2ccccc2)O[C@@H]2O[C@@]3(C)CC[C@H]4[C@H](C)CC[C@@H]1[C@@]24OO3 [Example 2, 10β-dihydroartemisinyl benzoate] | 2 (2 = active) | 2 (2 = active) | 0 (0 = inactive) | 2 | – | 1 | 0 | – | 0.02 ng/mL | – | – | 0.03 ng/mL
3 | 0.48 ng/mL (≈ 0.926 nM) | 1.1 ng/mL (≈ 2.12 nM) | 0.44 ng/mL (≈ 0.849 nM) | 0.71 ng/mL (≈ 1.37 nM) | C[C@H]1[C@@H](OC(=O)c2ccc3c(c2)C(=O)c2ccccc2C3=O)O[C@@H]2O[C@@]3(C)CC[C@H]4[C@H](C)CC[C@@H]1[C@@]24OO3 [Example 7] | – | – | – | – | – | – | – | – | 0.27 ng/mL | – | – | 0.21 ng/mL
4 | – | – | – | – | C[C@H]1[C@H](OC(=O)CCC(=O)[O-])O[C@@H]2O[C@@]3(C)CC[C@H]4[C@H](C)CC[C@@H]1[C@@]24OO3.[Na+] [Sodium Artesunate, sodium artesunate] | – | 2 (2 = active) | 2 (2 = active) | 2 | 0 (0 = inactive) | 0 | – | – | – | – | – | –

Row | SMILES | IC50 ([2]; W2, 66 h) | IC90 ([2]; W2, 66 h) | IC50 [3, 4] | IC90 [3, 4] | Evaluation (effectiveness) (Eimeria tenella; Dose 10^-5 g/ml) | Evaluation (effectiveness) (Eimeria tenella; Dose 10^-6 g/ml) | Evaluation (effectiveness) (Eimeria tenella; Dose 10^-7 g/ml) | Evaluation (observable effect) ([1]; Dose 10^-5 g/ml) | Evaluation (effectiveness) (Eimeria tenella; Dose 10^-8 g/ml) | Evaluation (observable effect) ([1]; Dose 10^-6 g/ml) | Evaluation (observable effect) ([1]; Dose 10^-7 g/ml) | In vitro activity: (IC10) ([2]; W2 Strain (Chloroquine resistant), 66 hours incubation) | In vitro activity: (IC10) [3, 4] | IC50 ([3]; D6, 66 h) | IC90 ([3]; D6, 66 h) | In vitro activity: (IC10) ([2]; W2, 66 h)
5 | CC(=O)O[C@@H]1O[C@@H]2O[C@@]3(C)CC[C@H]4[C@H](C)CC[C@@H]([C@H]1C)[C@@]24OO3 [Example 1, 10-dihydroartemisinyl ethanoate] | 119 ng/mL (≈ 365 nM) | 163 ng/mL (≈ 500 nM) | – | – | – | – | 1 (1 = weakly active) | 2 | 0 (0 = inactive) | 1 | 0 | 86.88 ng/mL | 127.91 ng/mL | 172 ng/mL (≈ 526 nM) | 231 ng/mL (≈ 706 nM) | –

Reference: EP0974594A1, “Artemisinin derivatives as anti-infective agent” (The Hong Kong University of Science & Technology, priority 1998, dated 2000)
